One compound from patent US10507208B2, “Compositions, packaged pharmaceuticals, and methods of using hedgehog pathway modulators for the sensitization of resistant tumors” (priority 2015, dated 2019) can be followed below.

Structures are written as SMILES.

Format in all cases: cell-based
The subject of experiment [1] is H295 (adrenal cortical carcinoma) cells. The experiment can be described thus: MTT assay, sensitization to vincristine or docetaxel in H295 cells. The note with it: vincristine or docetaxel plus sensitizer at 10, 1 or 0.1 micromolar, versus chemotherapy alone, FIGS. 10A-10H. Here is the method: (§1) Cancer cells grown in vitro are treated with chemotherapy drugs alone or simultaneously with a hedgehog pathway modulator, including itraconazole. The difference in cell death between cells treated with chemotherapy drugs alone or in simultaneous treatment with the hedgehog pathway modulators determines the degree of synergistic killing effect of the combination therapy.
(§2) Cell culture: The H295 cell line was grown in DMEM (Dulbecco's Modified Eagles Medium), supplemented with insulin, transferring, and selenium, 10% Fetal bovine serum, and gentamicin. The Kelly cell line was grown in DMEM, supplemented with 10% Fetal bovine serum, and gentamicin. Cell-based experiments were conducted in a 37 degree incubator supplemented with 5% carbon dioxide.
(§3) In vitro Pharmacology: H295 cells were plated in a 96-well dish at a density of 10000 cells per well and Kelly cells were plated at a density of 2000 cells per well. After 16 hours, cells were treated with 2-fold dilutions of vincristine (VCR) or docetaxel (DTX).
(§4) MTT Assay: Drug containing media from all of the dishes were discarded and MTT solution was added at a concentration of 5 micrograms per ml. The dishes were returned to the incubator for 4 hours.

The test system of experiment [2] is HeLa (cervical cancer) cells. The experiment is described as follows: MTT assay, sensitization to vincristine or docetaxel in HeLa cells. The note with it: HeLa cells (pre-exposed to chemotherapy, second-line model); sensitizer 10, 1 or 0.1 micromolar; FIGS. 10I-10L.
Experiment [3] relates to Kelly (neuroblastoma) cells. The experiment can be described thus: MTT assay, sensitization to vincristine or docetaxel in Kelly cells. The note with it: vincristine or docetaxel plus sensitizer at 10, 1 or 0.1 micromolar, versus chemotherapy alone, FIGS. 10A-10H. On the procedure:
as §1, §2, §3, §4

With `CC1=C2C[C@H]3[C@@H](CC=C4C[C@@H](O)CC[C@@]43C)[C@@H]2CC[C@]12O[C@@H]1C[C@H](C)CN[C@H]1[C@H]2C` [cyclopamine], the “concentration of chemotherapy necessary to stop proliferation as well as kill half of the amount of cells (IC50)” value in experiment [1] and in experiment [3] was “remains less than concentration of chemotherapy alone” in each case. The “sensitization to vincristine and docetaxel” value in experiment [2] is given as “did not respond”.
